Test results reported in ChEMBL document CHEMBL1909046, “DrugMatrix in vitro pharmacology data”.

Tests used:
Mu-type opioid receptor = Mu-type opioid receptor (Homo sapiens, UniProt P35372); assay: DRUGMATRIX: Opiate mu (OP3, MOP) radioligand binding (ligand: [3H] Diprenorphine); assay type: cell membranes, CHO-K1, Membrane; settings: cho-k1; Not Active = under 50% inhibition at 10 µM
Insulin receptor = Insulin receptor (Rattus norvegicus, UniProt P15127); assay type: cell membranes, Wistar, Liver, Membrane; also: in other assays of this panel Not Active means under 50% inhibition at 10 µM
Insulin receptor, sequence (P15127 27-759 limits assumed): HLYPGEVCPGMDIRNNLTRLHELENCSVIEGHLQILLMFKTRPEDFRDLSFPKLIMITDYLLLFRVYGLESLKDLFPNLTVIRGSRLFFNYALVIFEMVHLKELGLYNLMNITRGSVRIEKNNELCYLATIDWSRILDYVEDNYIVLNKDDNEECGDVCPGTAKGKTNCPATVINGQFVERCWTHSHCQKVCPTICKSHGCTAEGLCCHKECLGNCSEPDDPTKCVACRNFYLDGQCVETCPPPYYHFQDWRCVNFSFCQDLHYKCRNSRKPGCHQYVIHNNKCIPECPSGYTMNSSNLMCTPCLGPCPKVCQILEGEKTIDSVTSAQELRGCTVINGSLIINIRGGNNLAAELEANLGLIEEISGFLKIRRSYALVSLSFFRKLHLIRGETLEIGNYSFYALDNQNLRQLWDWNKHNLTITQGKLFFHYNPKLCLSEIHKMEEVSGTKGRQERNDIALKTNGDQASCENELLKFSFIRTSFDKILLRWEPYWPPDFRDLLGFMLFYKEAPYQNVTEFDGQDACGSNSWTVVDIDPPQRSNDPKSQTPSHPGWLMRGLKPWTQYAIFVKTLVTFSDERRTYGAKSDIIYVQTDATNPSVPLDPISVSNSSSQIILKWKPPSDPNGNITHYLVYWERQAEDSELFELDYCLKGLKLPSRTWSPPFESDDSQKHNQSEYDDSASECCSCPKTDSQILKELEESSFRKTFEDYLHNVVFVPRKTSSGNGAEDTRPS
Insulin receptor, sequence (P15127 764-1383 limits assumed): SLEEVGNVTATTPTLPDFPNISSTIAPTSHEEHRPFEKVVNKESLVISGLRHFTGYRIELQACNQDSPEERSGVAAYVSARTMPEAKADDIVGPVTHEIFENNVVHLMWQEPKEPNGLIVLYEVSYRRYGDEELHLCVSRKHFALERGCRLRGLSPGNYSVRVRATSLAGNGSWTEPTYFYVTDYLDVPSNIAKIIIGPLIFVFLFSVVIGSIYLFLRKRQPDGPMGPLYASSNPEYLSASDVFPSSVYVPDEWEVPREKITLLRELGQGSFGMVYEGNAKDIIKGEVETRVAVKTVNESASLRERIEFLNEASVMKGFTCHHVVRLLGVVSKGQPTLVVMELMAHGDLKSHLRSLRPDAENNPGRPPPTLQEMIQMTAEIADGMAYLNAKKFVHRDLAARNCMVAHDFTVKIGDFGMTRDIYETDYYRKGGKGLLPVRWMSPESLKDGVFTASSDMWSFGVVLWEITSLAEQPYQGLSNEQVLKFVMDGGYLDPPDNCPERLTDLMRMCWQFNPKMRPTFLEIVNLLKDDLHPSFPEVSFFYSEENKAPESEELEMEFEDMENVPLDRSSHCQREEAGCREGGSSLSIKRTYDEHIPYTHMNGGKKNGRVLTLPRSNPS

D(4) dopamine receptor = biological target: T1, D(4) dopamine receptor (Homo sapiens, UniProt P21917); assay: DRUGMATRIX: Dopamine D4.2 radioligand binding (ligand: [3H] Spiperone); assay type: cell membranes, CHO-K1, Membrane; settings: cho-k1; Not Active = under 50% inhibition at 10 µM
T1 sequence (P21917 whole entry): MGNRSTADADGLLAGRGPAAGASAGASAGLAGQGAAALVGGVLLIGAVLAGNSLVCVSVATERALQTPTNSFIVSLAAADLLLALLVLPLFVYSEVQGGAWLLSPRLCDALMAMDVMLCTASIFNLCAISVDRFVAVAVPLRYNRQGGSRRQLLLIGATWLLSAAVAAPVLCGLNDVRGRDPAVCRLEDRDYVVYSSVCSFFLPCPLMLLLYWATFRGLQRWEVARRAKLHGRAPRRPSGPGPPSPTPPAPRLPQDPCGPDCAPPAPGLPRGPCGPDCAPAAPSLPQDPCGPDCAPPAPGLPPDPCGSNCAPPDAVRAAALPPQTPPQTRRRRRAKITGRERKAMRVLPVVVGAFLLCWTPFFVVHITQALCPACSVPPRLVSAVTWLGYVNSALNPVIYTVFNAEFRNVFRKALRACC

[1] = DRUGMATRIX: Glutamate, AMPA radioligand binding (ligand: [3H] AMPA); assay type: cell membranes, Rattus norvegicus, Wistar, Cerebral cortex, Membrane; settings: Not Active = under 50% inhibition at 10 µM
[2] = biological target: Voltage-gated inwardly rectifying potassium channel KCNH2 (Homo sapiens, UniProt Q12809); settings: hek293; also: in other assays of this panel Not Active means under 50% inhibition at 10 µM
Voltage-gated inwardly rectifying potassium channel KCNH2, sequence (Q12809 whole entry): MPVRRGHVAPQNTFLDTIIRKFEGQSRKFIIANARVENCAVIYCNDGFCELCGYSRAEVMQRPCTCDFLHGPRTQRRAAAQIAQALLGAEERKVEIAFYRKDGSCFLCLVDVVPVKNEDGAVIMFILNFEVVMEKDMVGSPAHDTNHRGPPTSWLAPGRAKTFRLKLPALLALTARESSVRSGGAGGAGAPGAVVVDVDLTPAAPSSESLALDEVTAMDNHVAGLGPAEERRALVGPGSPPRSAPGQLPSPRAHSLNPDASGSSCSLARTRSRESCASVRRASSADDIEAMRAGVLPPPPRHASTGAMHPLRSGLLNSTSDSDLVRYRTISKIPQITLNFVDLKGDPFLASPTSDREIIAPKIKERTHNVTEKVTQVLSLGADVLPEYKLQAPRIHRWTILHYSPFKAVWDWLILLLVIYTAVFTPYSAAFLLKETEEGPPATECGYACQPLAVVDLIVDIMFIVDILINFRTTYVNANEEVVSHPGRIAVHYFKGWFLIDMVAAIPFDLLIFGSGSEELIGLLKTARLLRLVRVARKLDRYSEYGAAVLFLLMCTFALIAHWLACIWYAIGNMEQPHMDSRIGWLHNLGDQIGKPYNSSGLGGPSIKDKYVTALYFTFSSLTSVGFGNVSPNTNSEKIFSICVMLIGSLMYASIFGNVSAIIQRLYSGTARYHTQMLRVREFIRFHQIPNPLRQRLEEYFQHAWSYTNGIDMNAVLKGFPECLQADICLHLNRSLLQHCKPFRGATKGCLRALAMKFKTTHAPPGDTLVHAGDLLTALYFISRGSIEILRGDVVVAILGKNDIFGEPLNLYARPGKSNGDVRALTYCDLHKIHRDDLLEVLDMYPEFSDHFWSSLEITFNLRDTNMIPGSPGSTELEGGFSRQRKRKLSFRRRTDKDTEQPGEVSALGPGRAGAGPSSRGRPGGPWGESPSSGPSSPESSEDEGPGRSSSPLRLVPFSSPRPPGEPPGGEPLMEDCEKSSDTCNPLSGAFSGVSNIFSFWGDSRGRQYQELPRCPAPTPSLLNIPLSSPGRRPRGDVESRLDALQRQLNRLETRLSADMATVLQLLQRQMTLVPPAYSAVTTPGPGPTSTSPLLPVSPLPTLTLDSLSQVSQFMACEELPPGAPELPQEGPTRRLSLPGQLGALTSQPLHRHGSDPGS

[3] = biological target: T2, Muscarinic acetylcholine receptor M4 (Homo sapiens, UniProt P08173); assay type: cell membranes, CHO-K1, Membrane; settings: cho-k1; also: in other assays of this panel Not Active means under 50% inhibition at 10 µM
T2 sequence (P08173 whole entry): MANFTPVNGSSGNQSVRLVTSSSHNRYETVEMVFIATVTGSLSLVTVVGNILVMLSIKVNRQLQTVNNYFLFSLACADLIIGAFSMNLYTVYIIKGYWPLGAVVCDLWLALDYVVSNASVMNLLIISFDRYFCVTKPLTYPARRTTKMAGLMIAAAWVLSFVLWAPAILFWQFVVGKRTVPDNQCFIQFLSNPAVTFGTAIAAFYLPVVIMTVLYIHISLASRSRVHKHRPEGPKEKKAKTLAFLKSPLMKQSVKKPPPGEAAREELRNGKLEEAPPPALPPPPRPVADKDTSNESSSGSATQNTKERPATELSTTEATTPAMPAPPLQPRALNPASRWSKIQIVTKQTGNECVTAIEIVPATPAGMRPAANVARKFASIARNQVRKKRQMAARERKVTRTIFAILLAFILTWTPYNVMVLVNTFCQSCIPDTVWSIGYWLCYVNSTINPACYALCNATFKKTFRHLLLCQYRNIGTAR

[4] = DRUGMATRIX: Serotonin (5-Hydroxytryptamine) 5-HT3 radioligand binding (ligand: [3H] GR-65630); assay type: cell membranes, Membrane; settings: hek293; Not Active = under 50% inhibition at 10 µM
Cytochrome P450 3A4 = Cytochrome P450 3A4 (Homo sapiens, UniProt P08684); settings: bti-tn-5b1-4; also: in other assays of this panel Not Active means under 50% inhibition at 10 µM
Cytochrome P450 3A4, sequence (P08684 whole entry): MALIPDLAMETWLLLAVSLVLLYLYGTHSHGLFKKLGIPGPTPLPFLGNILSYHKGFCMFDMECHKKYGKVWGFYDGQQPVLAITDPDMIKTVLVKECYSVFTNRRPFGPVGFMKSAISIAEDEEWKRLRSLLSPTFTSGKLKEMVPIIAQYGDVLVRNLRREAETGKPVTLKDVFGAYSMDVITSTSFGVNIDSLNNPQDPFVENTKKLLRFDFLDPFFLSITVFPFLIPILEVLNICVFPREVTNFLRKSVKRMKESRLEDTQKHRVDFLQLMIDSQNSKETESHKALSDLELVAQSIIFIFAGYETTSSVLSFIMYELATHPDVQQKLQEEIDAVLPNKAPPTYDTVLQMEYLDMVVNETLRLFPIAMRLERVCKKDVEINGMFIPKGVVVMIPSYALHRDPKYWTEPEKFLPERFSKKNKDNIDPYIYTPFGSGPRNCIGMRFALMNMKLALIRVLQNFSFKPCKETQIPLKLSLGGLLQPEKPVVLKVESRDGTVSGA

Mu-type opioid receptor, sequence (P35372 whole entry): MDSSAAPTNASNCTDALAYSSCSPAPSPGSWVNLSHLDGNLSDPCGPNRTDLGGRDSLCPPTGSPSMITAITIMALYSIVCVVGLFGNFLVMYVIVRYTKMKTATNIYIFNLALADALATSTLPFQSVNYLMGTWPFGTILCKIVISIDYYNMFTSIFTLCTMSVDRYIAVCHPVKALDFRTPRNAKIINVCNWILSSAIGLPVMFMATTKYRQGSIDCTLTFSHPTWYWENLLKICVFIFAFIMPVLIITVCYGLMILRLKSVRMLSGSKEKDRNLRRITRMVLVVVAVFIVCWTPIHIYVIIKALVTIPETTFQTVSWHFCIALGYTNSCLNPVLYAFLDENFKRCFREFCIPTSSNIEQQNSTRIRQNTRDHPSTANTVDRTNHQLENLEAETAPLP

CN(C(=O)CCCOc1ccc2[nH]c(=O)ccc2c1)C1CCCCC1 [CILOSTAMIDE]
Not Active: IC50 (Mu-type opioid receptor) | IC50 (Insulin receptor) | IC50 (D(4) dopamine receptor) | IC50 [1] | Ki [1] | IC50 [2] | Ki [2] | IC50 [3] | IC50 [4] | Ki [4] | IC50 (Cytochrome P450 3A4) | Ki (Cytochrome P450 3A4)

CCOC(=O)[C@H](CCc1ccccc1)N[C@@H](C)C(=O)N1CCC[C@H]1C(=O)O
Not Active: IC50 (Mu-type opioid receptor) | IC50 (Insulin receptor) | IC50 (D(4) dopamine receptor) | IC50 [1] | Ki [1] | IC50 [2] | Ki [2] | IC50 [3] | IC50 [4] | Ki [4] | IC50 (Cytochrome P450 3A4) | Ki (Cytochrome P450 3A4)

O=C(O)c1cc(=O)c2c(OCC(O)COc3cccc4oc(C(=O)O)cc(=O)c34)cccc2o1 [CROMOLYN]
Not Active: IC50 (Mu-type opioid receptor) | IC50 (Insulin receptor) | IC50 (D(4) dopamine receptor) | IC50 [1] | Ki [1] | IC50 [2] | Ki [2] | IC50 [3] | IC50 [4] | Ki [4] | IC50 (Cytochrome P450 3A4) | Ki (Cytochrome P450 3A4)

Cc1cccc(Nc2cc(Cl)nc(SCC(=O)O)n2)c1C [PIRINIXIC ACID]
Not Active: IC50 (Mu-type opioid receptor) | IC50 (Insulin receptor) | IC50 (D(4) dopamine receptor) | IC50 [1] | Ki [1] | IC50 [2] | Ki [2] | IC50 [3] | IC50 [4] | Ki [4] | IC50 (Cytochrome P450 3A4) | Ki (Cytochrome P450 3A4)

CC[C@H]1OC(=O)[C@H](C)[C@@H](O[C@H]2C[C@@](C)(OC)[C@@H](O)[C@H](C)O2)[C@H](C)[C@@H](O[C@@H]2O[C@H](C)C[C@H](N(C)C)[C@H]2O)[C@](C)(OC)C[C@@H](C)C(=O)[C@H](C)[C@@H](O)[C@]1(C)O [CLARITHROMYCIN]
Not Active: IC50 (Mu-type opioid receptor) | IC50 (Insulin receptor) | IC50 (D(4) dopamine receptor) | IC50 [1] | Ki [1] | IC50 [2] | Ki [2] | IC50 [3] | IC50 [4] | Ki [4] | IC50 (Cytochrome P450 3A4) | Ki (Cytochrome P450 3A4)

CCc1oc2ccccc2c1C(=O)c1cc(Br)c(O)c(Br)c1 [BENZBROMARONE]
Not Active: IC50 (Mu-type opioid receptor) | IC50 (Insulin receptor) | IC50 (D(4) dopamine receptor) | IC50 [1] | Ki [1] | IC50 [2] | Ki [2] | IC50 [3] | IC50 [4] | Ki [4] | IC50 (Cytochrome P450 3A4) | Ki (Cytochrome P450 3A4)

CC[C@]1(O)CC[C@H]2[C@@H]3CCC4=CCCC[C@@H]4[C@H]3CC[C@@]21C
Not Active: IC50 (Mu-type opioid receptor) | IC50 (Insulin receptor) | IC50 (D(4) dopamine receptor) | IC50 [1] | Ki [1] | IC50 [2] | Ki [2] | IC50 [3] | IC50 [4] | Ki [4] | IC50 (Cytochrome P450 3A4) | Ki (Cytochrome P450 3A4)

CC(C)(Oc1ccc(C2CC2(Cl)Cl)cc1)C(=O)O (stereo not drawn) [CIPROFIBRATE]
Not Active: IC50 (Mu-type opioid receptor) | IC50 (Insulin receptor) | IC50 (D(4) dopamine receptor) | IC50 [1] | Ki [1] | IC50 [2] | Ki [2] | IC50 [3] | IC50 [4] | Ki [4] | IC50 (Cytochrome P450 3A4) | Ki (Cytochrome P450 3A4)

CO[C@H]1[C@@H](O)[C@H](N)[C@@H](O[C@H]2O[C@H]([C@H](C)N)CC[C@H]2N)[C@H](O)[C@@H]1N(C)C(=O)CN [ASTROMICIN]
Not Active: IC50 (Mu-type opioid receptor) | IC50 (Insulin receptor) | IC50 (D(4) dopamine receptor) | IC50 [1] | Ki [1] | IC50 [2] | Ki [2] | IC50 [3] | IC50 [4] | Ki [4] | IC50 (Cytochrome P450 3A4) | Ki (Cytochrome P450 3A4)
